≈ marks a conversion by molar mass, not a printed value. Where “and” joins values, the source holds several entries; their conditions need not be identical. Equal entries are not always repeated. Where two headings read alike, the source gives them in different places.
Experiments:
[1] = test system: three melanoma cell lines and four human prostate cancer cell lines; test: Antiproliferative activity quoted in the SAR text (average of all seven cell lines); assay type: cell-based
HL60 tumors = test: HL60 leukemia xenograft in nude mice; assay type: in vivo; conditions: vincristine 1 mg/kg intraperitoneal injection once a week
Experimental: The dosing schedule was once a week for two weeks. Vincristine (1 mg/mL) was administrated via intraperitoneal injection once a week.

A375RF21 [2] = test: Annexin V/propidium iodide apoptosis detection in A375RF21 cells; assay type: cell-based, human; conditions: 48 hours incubation
A375RF21 [3] = test: Cell cycle analysis (flow cytometry) in A375RF21 cells; assay type: cell-based, human; conditions: resistant A375RF21 cell line
Experimental: (§1) Flow cytometry analysis was performed as described before (Wang Z, Chen J, Wang J, et al. “Novel tubulin polymerization inhibitors overcome multidrug resistance and reduce melanoma lung metastasis.” Pharm. Res. (2012) 29: 3040-3052). To determine cell cycle distributions in the G2 and M phases (FIG. 23), cells were harvested with trypsin, stained using antiphospho-histone H3-AlexaFluor® 488 antibody on ice for one hour in the dark, followed by stained using PI/RNase solution for 30 minutes at room temperature in the dark per the manufacturer's instructions (#FCCH025103, EMD Millipore Corporation, Ballerica, Mass.). Data were further processed and graphs were prepared using the Modfit 2.0 program (Verity Software House, Topsham, Me.).

A375 [4] = test: Cell cycle analysis (flow cytometry) in parental A375 cells; assay type: cell-based, human
Experimental: as §1

A375RF21 xenograft = test: A375RF21 tumor xenograft in nude mice; assay type: in vivo
Experimental: Seven to eight week old male nude mice were purchased from Charles River Laboratories International, Inc. (Wilmington, Mass.). A375RF21 cells were suspended in ice-cold phenol red-free and FBS-free DMEM medium without FBS and mixed with high concentration Matrigel (BD Biosciences, San Joes, Calif.) at ratio of 1:1 right before use. 100 μL of this mixture containing 3×10^6 cells were injected subcutaneously (s.c.) to the left-side dorsal flank of each mouse. One week after the inoculation, the mice were randomized into four groups (n=7 for the initial low dose and n=5 for subsequent high dose drug combination) and the treatments started. […] Vehicle control group was i.p. injected with same volume (100 μL) of PEG300 at the same dosing frequency. At the end of the experiments, mice were euthanized and tumor tissue were isolated, weighted and then fixed in 10% buffered formalin phosphate solution.
Tumor volume and body weight of each mouse were evaluated three times a week.

PPC-1 = test: SRB cytotoxicity assay, PPC-1; assay type: cell-based, human; conditions: RABI, Tables 10A/10B; read-out: PPC1 (nM), inhibitory effects
PC-3 = test: SRB cytotoxicity assay, PC-3; conditions: read-out: PC3 (nM), inhibitory effects; RABI, Tables 10A/10B
LNCaP = test: SRB cytotoxicity assay, LNCaP; assay type: cell-based, human; conditions: Reversed aryl benzoyl imidazole (RABI), Tables 10A/10B; read-out: LNCaP (nM), inhibitory effects
[5] = Pharmacokinetic study in Sprague-Dawley rats; conditions: rat
[6] = Aqueous solubility (Multiscreen Solubility Filter Plate, LC-MS/MS); assay type: physicochemical
Experimental: The solubility of drugs was determined by Multiscreen Solubility Filter Plate (Millipore Corporate, Billerica, Mass.) coupled with LC-MS/MS.

A375RF21 [7] = test: In vitro combination assay (combination index) on A375RF21; assay type: cell-based, human; conditions: Treatment + Vemurafenib
Description: (§2) Cell proliferation viability was investigated using MTS or SRB assay as described previously. An in vitro study of the combination of vemurafenib and the tubulin inhibitors was designed and conducted using CalcuSyn software (Biosoft, Ferguson, Mo.) with five duplicates of each set of treatment. Drug concentrations were selected based on the IC50 value of each drug tested from a pilot study.

in vitro = conditions: human, liver microsomes, pH 7.4
[8] = Pharmacokinetic study in ICR mice; conditions: mouse; for MousePK_IV10mgk_Cl / MousePK_IV10mgk_V: IV 10 mg/kg
Experimental: All compounds (10 mg/kg) were dissolved in DMSO/PEG300 (1/9) and administered by a single intravenously (i.v.) injection (50 μL) into the tail vein.

A375 [9] = test: In vitro combination assay (combination index, Chou-Talalay, MTS) on A375; assay type: cell-based, human; conditions: +Vemurafenib; A375 cell line (Tables 3, 4)
Description: as §2

Du 145 = test: SRB cytotoxicity assay, Du 145; assay type: cell-based, human; conditions: RABI, Tables 10A/10B; read-out: DU145 (nM), inhibitory effects
A375RF21 [10] = test: MTS cell proliferation assay on vemurafenib-resistant A375RF21 cells; assay type: cell-based; conditions: Homo sapiens, read-out: IC50 value for proliferation inhibition
Description: as §2

A375 [11] = test: MTS cell proliferation assay on parental A375 cells; assay type: cell-based; conditions: Homo sapiens, A-375, read-out: IC50 value for proliferation inhibition
Experimental: Compounds were dissolved in dimethyl sulfoxide (DMSO, Sigma-Aldrich, St. Louis, Mo.) to make stock solution of 10 mM. […] All cell lines were authenticated prior to use for this study. Cells were cultured in DMEM medium (Mediatech, Inc., Manassas, Va.), supplemented by 10% fetal bovine serum (FBS, Atlanta Biologicals, Lawrenceville, Ga.), 1% antibiotic/antimycotic mixture (Sigma-Aldrich, St. Louis, Mo.) and 5 μg/mL bovine insulin (Sigma-Aldrich, St. Louis, Mo.).
Cell proliferation viability was investigated using MTS or SRB assay as described previously. […] Drug concentrations were selected based on the IC50 value of each drug tested from a pilot study.

[12] = test system: metastasis of melanoma to the lungs; test: Melanoma lung metastasis model in mice; assay type: in vivo; conditions: i.p. injection 5 days per week for 2 weeks (FIG. 28)
Description: Panel A: Representative photos of lungs with melanoma nodules (black dots, n=8 per group). Treatment was i.p. injection 5 days per week for 2 weeks. Panel B: Number of melanoma nodules on each lung. […] Panel C: Mouse body weight changes during the experiment. Points: means; bars: SD. Control: vehicle solution only.

PC-3/TxR tumors = conditions: for Tumor size (mm^2) End / Tumor size (mm^2) Start: PC-3/TxR xenograft; for Tumor size (mm^2) End: day 1 and 9, end point day 19; for Tumor size (mm^2) Start: day 1 and 9, start
[13] = Brain penetration (brain and plasma concentrations) in nude mice; conditions: docetaxel IP 10 mpk, 17ya PO 20 mpk, 55 PO 20 mpk
B16-F1 melanoma cells = test: B16-F1 melanoma colony formation assay in soft agar; assay type: cell-based, mouse; conditions: 14 days; tested 20, 100, 500 nM
Experimental: B16-F1 melanoma cells were plated at a colony-forming density (2000 cells per well on six-well plates) on top of 0.8% base agar. Cells were grown in 0.4% agar together with DMEM medium supplemented with fetal bovine serum and an antibiotic-antimycotic solution at 37° C. in an atmosphere of 95% air and 5% CO2. […] Compounds were added to the media from 1 mM DMSO stock solutions, and a corresponding dilution of DMSO was used as control. Cells were grown for 14 days. Plates were photographed, and the number of colonies was measured by Artek 880 Automated Colony Counter (Artek Systems Corporation, Farmingdale, N.Y.).

B16-F1 melanoma = B16-F1 melanoma tumors in C57/BL mice; assay type: in vivo; conditions: 60 mg/kg; after 13 days of treatment; C57BL/6 mice
Experimental: C57BL/6 mice bearing B16-F1 melanoma allograft (n=5 per group). Each mouse received 0.5×10^6 cells by s.c. injection into the flank. 30 μL i.p. daily treatments were started when tumor size reached ˜100 mm^3. […] Control, vehicle solution only; points, means; bars, SD. DTIC, (5-(3,3,-dimethyl-1-triazenyl)-imidazole-4-carboxamide, dacarbazine.
Female C57/BL mice, age 4-6 weeks, were purchased from Harlan Laboratories (Harlan Laboratories Inc., Indianapolis, Ind.). The animal housing met the Association for Assessment and Accreditation and Laboratory Animal Care specifications. All of the procedures were conducted in accordance with guidelines of our Institutional Animal Care and Use Committee.
The cell suspension (100 μL) was injected subcutaneously in the right dorsal flank of each mouse. When tumor size reached about 100-150 mm^3, about 7 days after cell inoculation, all mice bearing tumors were divided into control and treatment groups based on tumor size (n=5 per group). Each group had similar average tumor size. Mice in control groups (negative control) were injected intraperitoneally with 50 μL vehicle solution only or DTIC at 60 mg/kg (positive control) once daily. Tumor volume was measured every 2 days with a traceable electronic digital caliper (Fisher Scientific, Inc., Pittsburgh, Pa.) and calculated using the formula a×b^2×0.5, where a and b represented the larger and smaller diameters, respectively. Tumor volume was expressed in cubic millimeters. Data were expressed as mean±SE for each group and plotted as a function of time. […] Animal activity and average body weight of each group were monitored during the entire experiment period to assess compound toxicity. At the end of treatment, all mice were euthanized by CO2 followed by cervical dislocation, and tumors were harvested for further studies.

[14] = test system: A375 human melanoma xenograft; test: A375 human melanoma xenograft in SHO nude mice; assay type: in vivo; conditions: 60 mg/kg; after 31 days of treatment
Experimental: FIG. 19 depicts in vivo study of ABI compounds. […] C57BL/6 mice bearing B16-F1 melanoma allograft (n=5 per group). Each mouse received 0.5×10^6 cells by s.c. injection into the flank. 30 μL i.p. daily treatments were started when tumor size reached ˜100 mm^3. […] SHO nude mice bearing an A375 human melanoma xenograft (n=5 per group). Each mouse received 2.5×10^6 cells by s.c. injection into the flank. 30 μL i.p. daily treatments were started when the tumor size reached ˜150 mm^3. Control, vehicle solution only; points, means; bars, SD. DTIC, (5-(3,3,-dimethyl-1-triazenyl)-imidazole-4-carboxamide, dacarbazine.
Average body weight of all groups increased slightly throughout the experiment period.

[15] = 12da 10 mg/kg, vemurafenib 20 mg/kg, i.p. once per day 5 days per week, after 3 weeks of treatment, n=7
[16] = 12da 10 mg/kg, vemurafenib 20 mg/kg, after 3 weeks of treatment, n=7
[17] = vemurafenib 30 mg/kg, 12da 15 mg/kg, n=5

O=C(c1ccc(F)cc1)c1c[nH]c(-c2ccc(OCc3ccccc3)cc2)n1 [12jb, (2-(4-(benzyloxy)phenyl)-1H-imidazol-4-yl)(4-fluorophenyl)methanone]
increase in activity compared with the para-hydroxy compound 12kb [1]: 440 fold

CC[C@]1(O)C[C@H]2CN(CCc3c([nH]c4ccccc34)[C@@](C(=O)OC)(c3cc4c(cc3OC)N(C=O)[C@H]3[C@@](O)(C(=O)OC)[C@H](OC(C)=O)[C@]5(CC)C=CCN6CC[C@]43[C@@H]65)C2)C1 [Vincristine]
tumor growth inhibition (TGI) (HL60 tumors): 84%

CCCS(=O)(=O)Nc1ccc(F)c(C(=O)c2c[nH]c3ncc(-c4ccc(Cl)cc4)cc23)c1F [Vemurafenib, reference compound]
counted cell apoptosis or death (percentage sum of Q1, Q2 and Q4) (A375RF21 [2]): 11.9±3.5%
concentration of vemurafenib to produce G0/G1 cell cycle arrest (A375RF21 [3]): ≥ 30 µM
concentration of vemurafenib to produce G0/G1 cell cycle arrest (A375 [4]): less than 1 μM
TGI (%) (A375RF21 xenograft; [15]): 22.65 ± 8.31%
TGI (%) (A375RF21 xenograft; 12da 10 mg/kg, vemurafenib 20 mg/kg, i.p. once per day 5 days per week, after 3 weeks of treatment, n=7, listed as vemurafenib): 22.65%
Tumor weight (gram) (A375RF21 xenograft; [16]): 2.05 ± 0.14 gram
TGI (%) (A375RF21 xenograft; [17]): 28.10 ± 4.81%
Tumor weight (gram) (A375RF21 xenograft; [17]): 1.05 ± 0.21 gram
TGI (%) (A375RF21 xenograft; vemurafenib 30 mg/kg, 12da 15 mg/kg, n=5, listed as vemurafenib): 28.10%

COc1ccc(C(=O)c2nc(-c3cc(OC)c(OC)c(OC)c3)c[nH]2)cc1 [70y]
IC50 (PPC-1): 5680 nM
IC50 (PC-3): 10400 nM
IC50 (LNCaP): 708 nM

COc1cc(C(=O)c2csc(-c3ccccc3)n2)cc(OC)c1OC [1 h, reference compound]
oral bioavailability [5]: 3.3%
Aqueous solubility ([6]; PBS pH 7.4): (1.1) μg/mL

CC(=O)Nc1cccc(-n2c(=O)n(C3CC3)c(=O)c3c(Nc4ccc(I)cc4F)n(C)c(=O)c(C)c32)c1 [Trametinib]
CI ED75 (A375RF21 [7]): 0.90
CI ED90 (A375RF21 [7]): 0.90

COc1cc(C(=O)c2csc(-c3ccccc3)n2)cc(OC)c1OC [drawing 53]
RatPK_IV5mgk_V ([5]; IV, 2.5mpk): 4.9 (2.5mpk) L/kg
RatPK_PO10mgk_AUC ([5]; PO 10 mg/kg): 37 µg·min/mL
RatPK_Bioavailability ([5]; oral): 3.3 % F
half-life at 0.5 μM (in vitro): 17 min
MousePK_IV10mgk_Cl [8]: 130 mL/min/kg
MousePK_IV10mgk_V [8]: 4.9 L/kg

COc1cccc2c1C(=O)c1c(O)c3c(c(O)c1C2=O)C[C@@](O)(C(=O)CO)C[C@@H]3O[C@H]1C[C@H](N)[C@H](O)[C@H](C)O1 [Doxorubicin]
CI value EC75 (A375 [9]): 11.6

O=C(c1ccc(Br)cc1)c1nc(-c2ccc(Br)cc2)c[nH]1 [70t]
IC50 (PPC-1): 13200 nM
IC50 (PC-3): 18900 nM
IC50 (Du 145): 25500 nM
IC50 (LNCaP): 16900 nM

NC1(c2ccc(-c3nc4ccn5c(=O)[nH]nc5c4cc3-c3ccccc3)cc2)CCC1 [MK2206]
CI value EC75 (A375 [9]): 0.67

COc1cc(C(=O)c2c[nH]c(-c3ccc(C)cc3)n2)cc(OC)c1OC [12da, (2-(p-tolyl)-1H-imidazol-4-yl)(3,4,5-trimethoxyphenyl)methanone]
IC50 (A375RF21 [10]): 13.6 ± 4.4 nM
counted cell apoptosis or death (percentage sum of Q1, Q2 and Q4) (A375RF21 [2]): 11.8±3.0%
IC50 (A375 [11]): 10.7 ± 1.5 nM
TGI (%) (A375RF21 xenograft; [15]): 38.12% and 38.12 ± 6.14%
Tumor weight (gram) (A375RF21 xenograft; [16]): 1.77 ± 0.11 gram
TGI (%) (A375RF21 xenograft; [17]): 72.72% and 72.72 ± 8.29%
Tumor weight (gram) (A375RF21 xenograft; [17]): 0.51 ± 0.12 gram
metastasis of melanoma to the lungs [12]: inhibition

COc1cc(C(=O)c2c[nH]c(-c3ccc(Cl)cc3)n2)cc(OC)c1OC [12fa, (2-(4-chlorophenyl)-1H-imidazol-4-yl)(3,4,5-trimethoxyphenyl)methanone]
half-life at 0.5 μM (in vitro): 44 min
solubility at […] ([6]; phosphate buffered saline, aqueous buffer, kinetic from dmso stock, PBS pH 7.4): 12 µg/mL (≈ 32.2 µM)

CC(=O)O[C@@]12CO[C@@H]1C[C@H](O)[C@@]1(C)C(=O)[C@H](O)C3=C(C)[C@@H](OC(=O)[C@H](O)[C@@H](NC(=O)OC(C)(C)C)c4ccccc4)C[C@@](O)([C@@H](OC(=O)c4ccccc4)[C@H]21)C3(C)C [Docetaxel]
Tumor size (mm^2) End (PC-3/TxR tumors; IV 10mpk): 1774 ± 183 mm^2
Tumor size (mm^2) Start (PC-3/TxR tumors; IV 10mpk): 143 ± 20 mm^2
Tumor size (mm^2) End (PC-3/TxR tumors; IV 20mpk): 999 ± 905 mm^2
Tumor size (mm^2) Start (PC-3/TxR tumors; IV 20mpk): 170 ± 80 mm^2
TGI (%) (PC-3/TxR tumors; mouse, in vivo, iv, 10 mg/kg): 14%
counted cell apoptosis or death (percentage sum of Q1, Q2 and Q4) (A375RF21 [2]): 6.4±3.0%
CI ED75 (A375RF21 [7]): 0.80
CI ED90 (A375RF21 [7]): 0.90
Brain (ng/mL), 4 hr [13]: 20 ± 9 ng/mL
Plasma (ng/mL), 1 hr [13]: 768 ± 92 ng/mL
Plasma (ng/mL), 4 hr [13]: 345 ± 94 ng/mL
Brain (ng/mL), 1 hr ([13]; mean ± SD, 3 nude mice): 33 ± 14 ng/mL

COc1cc(C(=O)c2c[nH]c(-c3ccc(Cl)cc3)n2)cc(OC)c1OC [drawing 51]
RatPK_IV5mgk_Cl ([5]; IV 5 mg/kg): 16 mL/min/kg
RatPK_IV5mgk_V ([5]; IV 5 mg/kg): 1.9 L/kg
RatPK_PO10mgk_AUC ([5]; PO 10 mg/kg): 218 µg·min/mL
RatPK_PO10mgk_Cmax ([5]; PO 10 mg/kg): 1109 ng/mL
Solubility ([6]; aqueous): 12 µg/mL (≈ 32.2 µM)
MousePK_IV10mgk_Cl [8]: 61 mL/min/kg
MousePK_IV10mgk_V [8]: 4 L/kg
MousePK_PO20mgk_AUC ([8]; PO 20 mg/kg): 201 µg·min/mL
MousePK_PO20mgk_Cmax ([8]; PO 20 mg/kg): 2592 ng/mL

COc1ccc(-c2nc(C(=O)c3ccc(F)cc3)c[nH]2)cc1 [12cb, (4-fluorophenyl)(2-(4-methoxyphenyl)-1H-imidazol-4-yl)methanone]
concentration showing effective inhibition of B16-F1 colony formation (B16-F1 melanoma cells): 20 nM
metastasis of melanoma to the lungs [12]: inhibition

CN(C)/N=N/c1[nH]cnc1C(N)=O [DTIC, reference compound]
melanoma tumor growth inhibition (TGI value) (B16-F1 melanoma): 51%
melanoma tumor growth inhibition (TGI value) [14]: 52%

CC[C@]1(O)C[C@@H]2CN(CCc3c([nH]c4ccccc34)[C@@](C(=O)OC)(c3cc4c(cc3OC)N(C)[C@H]3[C@@](O)(C(=O)OC)[C@H](OC(C)=O)[C@]5(CC)C=CCN6CC[C@]43[C@@H]65)C2)C1 [Vinblastine]
CI value EC75 (A375 [9]): 0.78

CCN(CC)CCNC(=O)c1c(C)[nH]c(/C=C2\C(=O)Nc3ccc(F)cc32)c1C [Sunitinib]
CI ED75 (A375RF21 [7]): 0.91
CI ED90 (A375RF21 [7]): 0.93
